pEC50, pIC50: −log10 of the molar value. Where two headings read alike, the source gives them in different places.
Columns and labels:
HCT116 = assay: CCK-8 in vitro anti-tumor proliferation assay; type: cell-based; conditions: Homo sapiens, HCT-116, 72 hours
Experimental: (§1) Example 3: In vitro anti-tumor proliferation assay of the compounds. The purpose of this experiment was to use CCK-8 to detect the in vitro inhibitory activity of the compounds of the present invention against the proliferation of tumor cells. The main reagents, such as RPMI-1640, DMEM high-glucose culture medium, fetal bovine serum, trypsin, etc., were purchased from Gibco BRL. CCK8 and DMSO were products of Sigma. For in vitro experiment, the test compounds were prepared as 10 mM stock solutions in DMSO and stored at −20° C. in the refrigerator in the dark for later use, then diluted to desired concentration with complete culture medium before use. The human lung cancer cells, colon cancer cells, breast cancer cells, glioblastoma cells, human myelomonocytic leukemia cells, and human Burkitt's lymphoma cells used in this experiment were all purchased from the American ATCC company and preserved in laboratory of the inventors. All the above cell lines were cultured in RPMI-1640 complete medium or DMEM complete medium containing 10% fetal bovine serum, 100 U/mL penicillin, and 100 μg/mL streptomycin under 5% carbon dioxide, 37° C. conditions. […] The previous culture medium was discarded, fresh culture medium was added to resuspend the cells, and then the cells were counted. According to the growth rate of different cells, the cell seeding concentration was determined, generally being 3000-5000 cells/well. After determining the seeding concentration, the cell suspension was diluted to desired concentrations with fresh culture medium, and then added to a 96-well plate with 100 μL per well, and 200 μL of PBS was added to the edge wells to prevent evaporation of the culture medium. On the second day, drug treatment was performed. First, the compounds were diluted into a series of gradients with culture medium, and then the drug solution was added to the 96-well plate, with 3 parallel wells for each gradient. Each plate set a blank control group, and ONC201 was used as the positive control group.

HsClpP = HsClpP (Homo sapiens, UniProt Q16740); assay: HsClpP enzyme hydrolysis of short peptide substrate AC-WLA-AMC; conditions: for Regulatory efficacy 1 μM / Regulatory efficacy 10 μM: promoting hydrolysis of short peptide substrate by HsClpP, relative to blank control
Experimental: This study evaluated the regulatory activity of the compounds on HsClpP by examining the hydrolysis effects of HsClpP protein on the AC-WLA-AMC substrate . […] The small molecules and the HsClpP protein solution were added to a flat-bottomed black 96-well plate, with three replicate wells for each group. […] DMSO was used as a negative control instead of small molecules. The multiple of readings at different concentrations against the readings of DMSO group was recorded as an index for evaluation of hydrolysis activity. . . . GraphPad Prism was used to plot the obtained multiple values and calculate the EC50 values.

DLD1 = assay: CCK-8 in vitro anti-tumor proliferation assay; type: cell-based; conditions: Homo sapiens, DLD-1, 72 hours; for pIC50: Table 4, read-out: IC50 ( M) DLD1
Experimental: as §1

HCT115 = assay: CCK-8 in vitro anti-tumor proliferation assay; type: cell-based; conditions: Homo sapiens; Table 4; 72 hours
Experimental: as §1

HT29 = assay: CCK-8 in vitro anti-tumor proliferation assay; type: cell-based; conditions: Homo sapiens, HT-29; Table 4; 72 hours
Experimental: as §1

SW480 = assay: CCK-8 in vitro anti-tumor proliferation assay; type: cell-based; conditions: Homo sapiens, Table 4, 72 hours
Experimental: as §1

SW620 = assay: CCK-8 in vitro anti-tumor proliferation assay; type: cell-based; conditions: Homo sapiens, SW-620, 72 hours; for pIC50: Table 4, read-out: IC50 ( M) SW620
Experimental: as §1

A172 = assay: CCK-8 in vitro anti-tumor proliferation assay; type: cell-based; conditions: Homo sapiens, A 172; Table 3; 72 hours
Experimental: as §1

A549 = assay: CCK-8 in vitro anti-tumor proliferation assay; type: cell-based; conditions: Homo sapiens, A549; Table 3; 72 hours; read-out: IC50(uM) A549
Experimental: as §1

MV-4-11 = assay: CCK-8 in vitro anti-tumor proliferation assay; type: cell-based; conditions: Homo sapiens, MV4-11; Table 3; 72 hours; read-out: IC50(uM) MV-4-11
Experimental: as §1

Raji = assay: CCK-8 in vitro anti-tumor proliferation assay; type: cell-based; conditions: Homo sapiens, Table 3, 72 hours, read-out: IC50(uM) Raji
Experimental: as §1

[1] = Table 5, HCT116, read-out: IC50
[2] = Table 4, read-out: IC50 ( M) HCT116

Sequence of HsClpP (Q16740 57-277): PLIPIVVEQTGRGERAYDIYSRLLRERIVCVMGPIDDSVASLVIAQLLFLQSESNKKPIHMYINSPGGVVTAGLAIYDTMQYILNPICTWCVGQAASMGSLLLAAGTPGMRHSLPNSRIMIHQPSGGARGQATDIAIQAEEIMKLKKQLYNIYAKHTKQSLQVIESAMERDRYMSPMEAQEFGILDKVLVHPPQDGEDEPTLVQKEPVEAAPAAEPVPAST

Row | Compound | pIC50 (HCT116; [1]) | Regulatory efficacy 1 μM (HsClpP) | Regulatory efficacy 10 μM (HsClpP) | other results
1 | CN1CCn2c1nc(=O)c1c2CCN(Cc2ccccc2)C1 [Compound 2, 7-benzyl-3-methyl-2,3,6,7,8,9-hexahydroimidazo[1,2-a]pyrido[3,4-e]pyrimidin-5(1H)-one] | < 5.00 | + (+ indicating that the increased efficacy is less than 50% of the blank control group) | + (+ indicating that the increased efficacy is less than 50% of the blank control group) | –
2 | O=c1nc2n(c3c1CN(Cc1ccccc1)CC3)CCN2CC1CC1 [Compound 5, 7-benzyl-3-cyclopropylmethyl-2,3,6,7,8,9-hexahydroimidazo[1,2-a]pyrido[3,4-e]pyrimidin-5(1H)-one] | < 5.00 | + (+ indicating that the increased efficacy is less than 50% of the blank control group) | + + | –
3 | O=c1nc2n(c3c1CN(Cc1ccccc1)CC3)CCN2CC1CCCCC1 [Compound 6, 7-benzyl-3-cyclohexylmethyl-2,3,6,7,8,9-hexahydroimidazo[1,2-a]pyrido[3,4-e]pyrimidin-5(1H)-one] | 5.60 | + + | + + | –
4 | O=c1nc2n(c3c1CN(Cc1ccccc1)CC3)CCN2Cc1ccccc1 [Compound 7, 7-benzyl-3-benzyl-2,3,6,7,8,9-hexahydroimidazo[1,2-a]pyrido[3,4-e]pyrimidin-5(1H)-one] | 6.30 | + + | + + | –
5 | O=c1nc2n(c3c1CN(Cc1ccccc1)CC3)CCN2Cc1ccc2ccccc2c1 [Compound 8, 7-benzyl-3-(2-naphthylmethyl)-2,3,6,7,8,9-hexahydroimidazo[1,2-a]pyrido[3,4-e]pyrimidin-5(1H)-one] | 6.52 | + + | + + | –
6 | Cc1cccc(CN2CCn3c2nc(=O)c2c3CCN(Cc3ccccc3)C2)c1 [Compound 11, 7-benzyl-3-(3-methylbenzyl)-2,3,6,7,8,9-hexahydroimidazo[1,2-a]pyrido[3,4-e]pyrimidin-5(1H)-one] | 6.52 | + + | + + | –
7 | Cc1ccc(CN2CCn3c2nc(=O)c2c3CCN(Cc3ccccc3)C2)cc1 [Compound 12, 7-benzyl-3-(4-methylbenzyl)-2,3,6,7,8,9-hexahydroimidazo[1,2-a]pyrido[3,4-e]pyrimidin-5(1H)-one] | 6.70 | + + | + + | –
8 | COc1ccccc1CN1CCn2c1nc(=O)c1c2CCN(Cc2ccccc2)C1 [Compound 13, 7-benzyl-3-(2-methoxybenzyl)-2,3,6,7,8,9-hexahydroimidazo[1,2-a]pyrido[3,4-e]pyrimidin-5(1H)-one] | 5.89 | + + | + + | –
9 | COc1ccc(CN2CCn3c2nc(=O)c2c3CCN(Cc3ccccc3)C2)cc1 [Compound 14, 7-benzyl-3-(4-methoxybenzyl)-2,3,6,7,8,9-hexahydroimidazo[1,2-a]pyrido[3,4-e]pyrimidin-5(1H)-one] | 5.92 | + + | + + | –
10 | O=c1nc2n(c3c1CN(Cc1ccccc1)CC3)CCN2Cc1ccc(F)cc1 [Compound 15, 7-benzyl-3-(4-fluorobenzyl)-2,3,6,7,8,9-hexahydroimidazo[1,2-a]pyrido[3,4-e]pyrimidin-5(1H)-one] | 7.10 | + + | + + | pIC50 (DLD1): 7.05; pIC50 (HCT115): 6.70; pIC50 (HCT116; [2]): 7.10; pIC50 (HT29): 6.40; pIC50 (SW480): 6.77; pIC50 (SW620): 6.72; pEC50 (HsClpP): 7.00
11 | CCN1CCc2c(c(=O)nc3n2CCN3Cc2ccccc2C)C1 [Compound 28, 7-ethyl-3-(2-methylbenzyl)-2,3,6,7,8,9-hexahydroimidazo[1,2-a]pyrido[3,4-e]pyrimidin-5(1H)-one] | < 5.00 | + (+ indicating that the increased efficacy is less than 50% of the blank control group) | + (+ indicating that the increased efficacy is less than 50% of the blank control group) | –
12 | Cc1ccccc1CN1CCn2c1nc(=O)c1c2CCN(C(=O)c2ccccc2)C1 [Compound 39, 7-benzoyl-3-(2-methylbenzyl)-2,3,6,7,8,9-hexahydroimidazo[1,2-a]pyrido[3,4-e]pyrimidin-5(1H)-one] | < 5.00 | + (+ indicating that the increased efficacy is less than 50% of the blank control group) | + (+ indicating that the increased efficacy is less than 50% of the blank control group) | –

Second part, led by results:

Row | pIC50 (HCT116; [1]) | Regulatory efficacy 1 μM (HsClpP) | Regulatory efficacy 10 μM (HsClpP) | Compound | other results
13 | 7.10 | + + | + + | O=c1nc2n(c3c1CN(Cc1ccccc1)CC3)CCN2Cc1ccc(Cl)cc1 [Compound 16, 7-benzyl-3-(4-chlorobenzyl)-2,3,6,7,8,9-hexahydroimidazo[1,2-a]pyrido[3,4-e]pyrimidin-5(1H)-one] | pIC50 (DLD1): 7.00; pIC50 (HCT115): 6.60; pIC50 (HCT116; [2]): 7.10; pIC50 (HT29): 7.15; pIC50 (SW480): 7.00; pIC50 (SW620): 6.77
14 | 6.30 | + + | + + | O=c1nc2n(c3c1CN(Cc1ccccc1)CC3)CCN2Cc1ccc(Br)cc1 [Compound 17, 7-benzyl-3-(4-bromobenzyl)-2,3,6,7,8,9-hexahydroimidazo[1,2-a]pyrido[3,4-e]pyrimidin-5(1H)-one] | –
15 | 6.52 | + + | + + | O=c1nc2n(c3c1CN(Cc1ccccc1)CC3)CCN2Cc1ccc(C(F)(F)F)cc1 [Compound 18, 7-benzyl-3-(4-trifluoromethylbenzyl)-2,3,6,7,8,9-hexahydroimidazo[1,2-a]pyrido[3,4-e]pyrimidin-5(1H)-one] | IC50 (A172): 0.2 µM; IC50 (A549): 0.2 µM; IC50 (DLD1; Table 3, read-out: IC50(uM) DLD1): 1.5e-07 M; IC50 (MV-4-11): 0.05 µM; IC50 (Raji): 0.1 µM; IC50 (SW620; Table 3, read-out: IC50(uM) SW620): 5e-07 M; pEC50 (HsClpP): 6.52
16 | 7.10 | + + | + + | O=c1nc2n(c3c1CN(Cc1ccccc1)CC3)CCN2Cc1ccc(Br)c(F)c1 [Compound 22, 7-benzyl-3-(4-bromo-3-fluorobenzyl)-2,3,6,7,8,9-hexahydroimidazo[1,2-a]pyrido[3,4-e]pyrimidin-5 (1H)-one] | –
17 | 7.52 | + + | + + | O=c1nc2n(c3c1CN(Cc1ccccc1)CC3)CCN2Cc1ccc(Cl)c(Cl)c1 [Compound 26, 7-benzyl-3-(3,4-dichlorobenzyl)-2,3,6,7,8,9-hexahydroimidazo[1,2-a]pyrido[3,4-e]pyrimidin-5(1H)-one] | –
18 | 5.82 | + + | + + | Cc1cccc(CN2CCc3c(c(=O)nc4n3CCN4Cc3ccccc3C)C2)c1 [Compound 32, 3-(2-methylbenzyl)-7-(3-methylbenzyl)-2,3,6,7,8,9-hexahydroimidazo[1,2-a]pyrido[3,4-e]pyrimidin-5(1H)-one] | –
19 | 6.30 | + + | + + | Cc1ccccc1CN1CCn2c1nc(=O)c1c2CCN(Cc2cccc(C#N)c2)C1 [Compound 35, 3-((3-(2-methylbenzyl)-5-oxo-2,3,6,7,8,9-hexahydroimidazo[1,2-a]pyrido[3,4-e]pyrimidin-7(6H)-yl)methyl)benzonitrile] | –

— patent US20240287071A1, “CLASS OF IMIDAZOLIDINOPYRIMIDONE COMPOUNDS AND USE THEREOF IN TREATMENT OF HSCLPP-MEDIATED DISEASES” (SICHUAN UNIVERSITY, priority 2021, published 2024)
